Experimental data reported in patent publication US20230136297A1, “Methods Of Treating Fabry Disease In Patients Having A Mutation In The GLA Gene” (Amicus Therapeutics, Inc., priority 2020, published 2023).
Residue numbers refer to the chain shown, from its start.

Tests used:
Assay in all cases: α-Gal A activity in lysates of transfected HEK-293 cells ± migalastat (HEK assay)
Type in all cases: cell-based
[1] = target: T1, α-Gal A mutant form N419D (Homo sapiens, UniProt P06280, N419D)
T1 construct: expressed in transfected cells; host or cells: HEK-293
T1 sequence (P06280 32-429 N419D): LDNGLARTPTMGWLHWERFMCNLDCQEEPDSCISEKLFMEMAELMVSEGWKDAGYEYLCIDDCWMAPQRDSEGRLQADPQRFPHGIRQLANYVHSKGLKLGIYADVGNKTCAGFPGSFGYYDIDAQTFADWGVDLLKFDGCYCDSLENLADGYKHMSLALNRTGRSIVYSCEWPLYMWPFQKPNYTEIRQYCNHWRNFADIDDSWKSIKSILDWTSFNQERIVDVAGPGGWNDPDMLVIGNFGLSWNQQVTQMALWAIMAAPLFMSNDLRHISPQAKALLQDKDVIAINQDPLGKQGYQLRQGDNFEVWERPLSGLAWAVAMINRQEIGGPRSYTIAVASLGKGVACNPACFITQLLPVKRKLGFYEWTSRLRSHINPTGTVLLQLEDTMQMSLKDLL
Excerpt: (§1) Such mutations or variants are also referred to herein as “HEK assay amenable” mutations or variants.
(§2) The α-Gal A activity is expressed as the nmoles of free 4-MU released per milligram of protein per hour (nmol/mg/hr).

[2] = target: T2, α-Gal A mutant form F169I (Homo sapiens, UniProt P06280, F169I)
T2 construct: expressed in transfected cells; host or cells: HEK-293
T2 sequence (P06280 32-429 F169I): T1 sequence (P06280 32-429 N419D) with F138I, D388N
Excerpt: as §1, §2

[3] = target: T3, α-Gal A mutant form L180V (Homo sapiens, UniProt P06280, L180V)
T3 construct: expressed in transfected cells; host or cells: HEK-293
T3 sequence (P06280 32-429 L180V): T1 sequence (P06280 32-429 N419D) with L149V, D388N
Excerpt: as §1, §2

[4] = target: T4, α-Gal A mutant form F159C (Homo sapiens, UniProt P06280, F159C)
T4 construct: expressed in transfected cells; host or cells: HEK-293
T4 sequence (P06280 32-429 F159C): T1 sequence (P06280 32-429 N419D) with F128C, D388N
Excerpt: as §1, §2

[5] = target: T5, α-Gal A mutant form G375A (Homo sapiens, UniProt P06280, G375A)
T5 construct: expressed in transfected cells; host or cells: HEK-293
T5 sequence (P06280 32-429 G375A): T1 sequence (P06280 32-429 N419D) with G344A, D388N
Excerpt: as §1, §2

[6] = 10 μM migalastat minus baseline
[7] = HEK-293 lysates, 10 μM migalastat 5 days, mean ± SEM

In the case of OC[C@H]1NC[C@H](O)[C@@H](O)[C@H]1O [migalastat, (2R,3S,4R,5S)-2-(hydroxymethyl) piperdine-3,4,5-triol], the “Absolute increase (% WT)” value [1, 6] is reported as 12.6 % WT, the Relative increase ([1]; 10 μM migalastat ÷ baseline) is reported as 1.37 and the “10 μM migalastat α-Gal A activity” value [1, 7] is reported as 14558 ± 678 nmol/mg/h. The “10 μM migalastat α-Gal A activity (% WT)” value [1, 7] was 44.1 ± 2.9 % WT, the “Absolute increase (% WT)” value [2, 6] was 35.9 % WT and the Relative increase ([2]; 10 μM migalastat ÷ baseline) was 3.44. The “10 μM migalastat α-Gal A activity” value [2, 7] was 15903 ± 567 nmol/mg/h, the “10 μM migalastat α-Gal A activity (% WT)” value [2, 7] was 51.7 ± 2.2 % WT and the “Absolute increase (% WT)” value [3, 6] was 36.2 % WT. The Relative increase ([3]; 10 μM migalastat ÷ baseline) was 1.97, the “10 μM migalastat α-Gal A activity” value [3, 7] was 25437 ± 1279 nmol/mg/h and the “10 μM migalastat α-Gal A activity (% WT)” value [3, 7] was 73.4 ± 2.9 % WT. For the same compound, the “Absolute increase (% WT)” value [4, 6] was 15.8 % WT, the Relative increase ([4]; 10 μM migalastat ÷ baseline) was 2.07 and the “10 μM migalastat α-Gal A activity” value [4, 7] was 9238 ± 513 nmol/mg/h. For the same compound, the “10 μM migalastat α-Gal A activity (% WT)” value [4, 7] was 29.6 ± 2.3 % WT, the “Absolute increase (% WT)” value [5, 6] was 12 % WT and the Relative increase ([5]; 10 μM migalastat ÷ baseline) was 1.23. For the same compound, the “10 μM migalastat α-Gal A activity” value [5, 7] was 24212 ± 1520 nmol/mg/h and the “10 μM migalastat α-Gal A activity (% WT)” value [5, 7] was 66.8 ± 2.4 % WT.
